According to patent US12233103B2, “Indoleamine 2,3-dioxygenase based immunotherapy” (IO BIOTECH APS, priority 2008, dated 2025):

How the values were obtained:
[1] = system: PBL from HLA-A2 positive cancer patients (breast cancer, melanoma, renal cell carcinoma); experiment: IFN-γ ELISPOT after one in vitro peptide stimulation, cancer patients; format: cell-based, human; settings: HLA-A2 positive late stage cancer patients; PBL stimulated once with peptide in vitro
Method: (§1) To extend the sensitivity of the enzyme-linked immunospot (ELISPOT) assay, PBL were stimulated once in vitro with peptide prior to analysis^34. At day 0, PBL were thawed and plated in 2 ml/well at a concentration of 2×10^6 cells in 24-well plates (Nunc) in X-vivo medium (BioWhittaker) with 5% heat-inactivated human serum in the presence of 10 μM peptide (GenScript). One day later 40 IU/ml recombinant interleukin-2 (IL-2) (PeproTech) was added to the cultures. The cultured cells were tested in the IFN-γ ELISPOT assay on day 8.
(§2) The ELISPOT assay was used to quantify peptide epitope-specific INF-γ releasing effector cells as described previously^17. In some experiments PBMC were stimulated once in vitro with peptide prior to analysis as described^(34) to extend the sensitivity of the assay. Briefly, nitrocellulose bottomed 96-well plates (MultiScreen MAIP N45; Millipore) were coated with anti-IFN-γ Ab (1-D1K; Mabtech). The wells were washed, blocked by X-vivo medium and the effector cells were added in duplicates at different cell concentrations, with or without 10 μM peptide. The plates were incubated overnight. The following day, medium was discarded and the wells were washed prior to addition of biotinylated secondary Ab (7-B6-1-Biotin; Mabtech). The plates were incubated at room temperature (RD for 2 h, washed, and Avidin-enzyme conjugate (AP-Avidin; Calbiochem/Invitrogen Life Technologies) was added to each well. Plates were incubated at RT for 1 h and the enzyme substrate NBT/BCIP (Invitrogen Life Technologies) was added to each well and incubated at RT for 5-10 min. Upon the emergence of dark purple spots, the reaction was terminated by washing with tap water. The spots were counted using the ImmunoSpot Series 2.0 Analyzer (CTL Analyzers) and the peptide-specific CTL frequency could be calculated from the numbers of spot-forming cells.
(§3) Eleven IDO-derived peptides were selected using algorithms based on the main HLA-A2 specific anchor residues and subsequently synthesized^16. […]

[2] = system: TIL cultures from HLA-A2+ melanoma and head and neck cancer patients; experiment: HLA-A2/IDO5 tetramer staining of IL-2 treated TIL cultures; format: cell-based, human; settings: tetramer stainings
Text: (§4) For tetramer stainings, PBL from cancer patients and healthy donors as well as TIL from cancer patients were stimulated once in vitro with peptide, or analysed directly ex vivo. The CD8 cells were isolated from PBL using the Dynal CD8 negative isolation kit (Dynal Biotech) at day 7. The resulting T cell cultures were stained with PE coupled tetramer, followed by antibody staining with the flourochrome-coupled mAbs: CD8-allophycocyanin/APC-Cy7, CD3-FITC, […], CD45RO-FITC, CD45RA-PE-Cy5 and CD28-allophycocyanin (BD Immunocytometry Systems). Tetramer stainings were performed in PBS+2% FCS, for 15 min, RT, in the dark, whereas antibody stainings were performed in PBS+2% FCS, 4° C., in the dark. The MHC tetramer complexes used were: HLA-A2/IDO5 (ALLEIASCL (SEQ ID NO: 20)) and HLA-A2/HIV-1 pol476-484 ([…] (SEQ ID NO: 18)). The samples were analyzed on BD FACS aria, using DIVA software (BD Biosciences).

CD8+ T cells in PBL = experiment: HLA-A2/IDO5 tetramer flow cytometry of PBL; format: cell-based, human; settings: for average frequency of IDO reactive cells of total CD8+ T cells: after in vitro stimulation
Text: as §4

HLA-A2 [3] = biological target: T1, HLA-A2 (Homo sapiens, UniProt P04439, D140Y/D185E/D98H/E176V/E277Q/G131W/G231S/I119V/I121R/I166T/I218V/L300P/L318F/N151K/N90K/P208A/P217A/Q86G/Q94H/R138H/R169H/T345S); experiment: Assembly assay for peptide binding to MHC class I molecules; settings: recovery of HLA-A2 at 100, 10, 1 and 0.1 μM peptide
T1 construct: empty HLA-molecules released upon cell lysis, from the TAP-deficient cell line T2; endogenous in cells; host or cells: T2 (TAP-deficient human cell line), cell lysate
Method: The binding affinity of the synthetic peptides (Genscript) to HLA-A2 molecules, metabolically labelled with [35^S]-methionine, was measured in the assembly assay, as described previously^33. The assay is based on peptide-mediated stabilization of empty HLA-molecules released upon cell lysis, from the TAP-deficient cell line T2. Stably folded HLA-molecules were immune-precipitated by using the HLA class-I specific, conformation dependent monoclonal (mAb) W6/32 and separated by isoelectric focusing (IEF) gel electrophoresis. Major histocompatibility complex (MHC) heavy-chain bands were quantified using the ImageGauge Phosphoimager program (FUJI Photo Film, Carrolton, TX). The intensity of the band is directly related to the amount of peptide-bound class I MHC complex recovering during the assay. The recovery of HLA-A2 was measured in presence of 100, 10, 1, and 0.1 μM of the relevant peptide. The C50 value was calculated for each peptide as the peptide concentration sufficient for half maximal stabilization.

[4] = system: PBL from healthy individuals; experiment: IFN-γ ELISPOT after one in vitro peptide stimulation, healthy individuals; format: cell-based, human
Method: as §1, §2, §3

IDO = experiment: Intracellular IDO staining by flow cytometry; format: cell-based, human
Text: Cancer cell lines and DC were examined for expression of IDO using flow cytometry. After fixation and permeabilization (Cytofix/Cytoperm, BD), cells were stained with mouse anti-IDO antibody (Millipore Corporation) followed by FITC-labeled anti-mouse secondary antibody (DAKO). For all experiments, a negative control only stained with the FITC-coupled secondary antibody was included, to determine the background fluorescence from falsely attached secondary antibodyE and auto-fluorescence. The IDO expression was determined using the staining index defined as MFIpositive−MFIbackground/2×SDbackground where MFI is mean fluorescence intensity. Cells were defined IDO positive if the staining index>1^21.

HLA-A2 [5] = experiment: HLA-A2 expression by flow cytometry; format: cell-based, human; settings: CAMA-1+IFN-γ treatment (untreated 43.7)
Method: Cancer cells were examined for HLA-A2 expression using flow cytometry. Cells were stained with a fluorochrome-coupled HLA-A2 mAb (BD Bioscience). For comparison, cells were stained with an isotype matched control. The samples were analyzed on BD FACS aria, using DIVA software (BD Biosciences). Assuming normality, HLA-A2 expression was given by a one-tailed two sampled T-test comparing MFIHLA-A2 and MFIIsotype control, where MFI is the Mean Fluorescence 9 Intensity. For p-values<0.05 (significance level) cells were defined HLA-A2+. The fold of expression was defined as MFIHLA-A2/MFIIsotype control.

Substance: ALLEIASCL (listed as Homo sapiens) [IDO5]
- ELISPOT responses in PBL of cancer patients [1]: ELISPOT responses were detected
- analyzed patients with detectable IDO5-specific T cells among TIL [2]: 4 of the 5
- average frequency of IDO reactive cells of total CD8+ T cells (CD8+ T cells in PBL; 7 HLA-A2 positive healthy donors): 0.001%
- average frequency of IDO reactive cells of total CD8+ T cells (CD8+ T cells in PBL; 11 HLA-A2 positive cancer patients): 0.03%
- detection of IDO-reactive T cells in healthy donors (CD8+ T cells in PBL; tetramer staining, healthy donors): No IDO-reactive T cells could be detected
- binding affinity to HLA-A2 compared with the high affinity positive control epitope HIV-1 pol476-484 (HLA-A2 [3]): bound HLA-A2 even better than the high-affinity control epitope
- spontaneous ELISPOT responses in healthy controls [4]: No spontaneous responses could be detected

Substance: FLVSLLVEI (listed as Homo sapiens) [IDO2]
- ELISPOT responses in PBL of cancer patients [1]: ELISPOT responses were detected
- spontaneous ELISPOT responses in healthy controls [4]: No spontaneous responses could be detected

Substance: IFN-γ: cytokine used to treat cancer cells, 100 U/ml for 2 days
- IDO staining index (IDO; CAMA-1+IFN-γ (untreated CAMA-1 1.3), IDO positive if index>1): 1.8
- MFIIDO/MFIIsotype control (IDO; CAMA-1+IFN-γ treatment (untreated 2.3)): 3.5
- expression of IDO in CAMA-1 and MDA-MB-231 after treatment (IDO; both cell lines): increased the expression of IDO
- HLA-A2 expression, fold over isotype control (HLA-A2 [5]): 141.2

Substance: VLSKGDGL (VLSKGDAGL; listed as Homo sapiens) [IDO6]
- ELISPOT responses in PBL of cancer patients [1]: ELISPOT responses were detected
- spontaneous ELISPOT responses in healthy controls [4]: No spontaneous responses could be detected
